Measured values taken from patent publication US4696928A, “Substituted dihydroimidazo[1,2-a]quinoxalines” (G. D. Searle & Co., priority 1985, dated 1987).
Values after ≈ are worked out from the molar mass of the structure shown. Where two headings read alike, the source gives them in different places.

What was measured:
B. Fragilis ATCC 23745 = details: Bacteroides fragilis, ATCC23745, in Mus musculus, po, 48 h, read-out: Dose giving 1 log reduction, p.o., after infection and twice daily for 2 days; 1 log (90%) reduction of CFU/ml liver homogenate vs untreated; compound of Example
[1] = system: B. fragilis MZ-R ATCC 11295; assay: MIC/MBC broth microdilution, strain D; type: cell-based; details: Bacteroides fragilis, ATCC11295, 48 h; for MBC: 99.9% reduction in viable count after 48 h
B. fragilis NCTC 9343 = assay: MIC/MBC broth microdilution, strain B; type: cell-based; details: Bacteroides fragilis, NCTC9343, 48 h; for MBC: 99.9% reduction in viable count after 48 h; for MIC: 37° C., anaerobic
B. fragilis NCTC 9344 = assay: MIC/MBC broth microdilution, strain C; type: cell-based, Bacteroides fragilis; details: Bacteroides fragilis, NCTC9344, 48 h; for MBC: 99.9% reduction in viable count after 48 h, read-out: MBC; for MIC: 37° C., anaerobic
B. fragilis NCTC 10581 = assay: MIC/MBC broth microdilution, strain A; type: cell-based; details: Bacteroides fragilis, NCTC10581, 48 h; for MBC: 99.9% reduction in viable count after 48 h; for MIC: 37° C., anaerobic
[2] = system: Peptostreptococcus anaerobicus; assay: MIC vs. panel of anaerobes; type: cell-based
[3] = system: Clostridium difficile NCIB 10666; assay: MIC vs. panel of anaerobes; type: cell-based; details: Clostridioides difficile, NCIB10666; Clostridium difficile NCIB 10666; read-out: MIC
[4] = system: Propionebacterium acnes NCTC 7337; assay: MIC vs. panel of anaerobes; type: cell-based
[5] = system: Propionebecterium acnes NCTC 737; assay: MIC vs. panel of anaerobes; type: cell-based
[6] = system: Clostridium perfringens NCTC 523; assay: microbe, parasite or virus in culture; type: cell-based; details: NCTC523
[7] = system: Bacteroides melanogenicus NCTC 9336; assay: MIC vs. panel of anaerobes; type: cell-based; details: NCTC9336
B. fragilis WS-1 = assay: MIC/MBC broth microdilution, strain E; type: cell-based, Bacteroides fragilis; details: Bacteroides fragilis, WS1, 48 h; for MIC: 37° C., anaerobic, read-out: MIC; for MBC: 99.9% reduction in viable count after 48 h
[8] = system: Campylobacter fetus ss.jejuni ATCC 29428; assay: MIC vs. panel of anaerobes; type: cell-based; details: ATCC29428
[9] = system: Fusobacterium necrophorum ATCC 11295; assay: MIC vs. panel of anaerobes; type: cell-based; details: ATCC11295; Fusobacterium necrophorum ATCC 11295; read-out: MIC
[10] = system: Clostridium perfringens NCTC 8237; assay: microbe, parasite or virus in culture; type: cell-based; details: NCTC8237
[11] = system: Clostridium difficile Cytotoxic 1; assay: MIC vs. panel of anaerobes; type: cell-based; details: Clostridioides difficile
[12] = strain D (MZ-R), 48 h, 37° C., anaerobic, read-out: MIC
[13] = Peptostreptococcus anaerobicus, read-out: MIC
[14] = Bacteroides melanogenicus NCTC 9336, read-out: MIC

SMILES	ED (1 log reduction) (B. Fragilis ATCC 23745) [mg/kg]	MIC [1] [µg/mL]	MBC ([1]; strain D (MZ-R)) [µg/mL]	MBC (B. fragilis NCTC 9343) [µg/mL]	MIC (B. fragilis NCTC 9343; 48 h) [µg/mL]	MBC (B. fragilis NCTC 9344) [µg/mL]	MIC (B. fragilis NCTC 9344; 48 h) [µg/mL]	MBC (B. fragilis NCTC 10581) [µg/mL]	MIC (B. fragilis NCTC 10581; 48 h) [µg/mL]	MIC [1, 12] [µg/mL]	MIC [3] [µg/mL]	MIC [4] [µg/mL]	MIC [5] [µg/mL]	MIC [6] [µg/mL]	MIC (B. fragilis WS-1) [µg/mL]	MBC (B. fragilis WS-1) [µg/mL]	MIC [8] [µg/mL]	MIC [9] [µg/mL]	MIC [10] [µg/mL]	MIC [11] [µg/mL]	further results
CN1CCN(c2ccc3c(n2)N2CCN=C2C(c2ccccc2)=[N+]3[O-])CC1 [Example 9, 1,2-Dihydro-8-(4-methylpiperazinyl)-4-phenylimidazo[1,2-a]pyrido[3,2-e]pyrazine 5-oxide]	4.48	0.8 (≈ 2.21 µM)	0.8 (≈ 2.21 µM)	0.8 (≈ 2.21 µM)	0.8 (≈ 2.21 µM)	0.8 (≈ 2.21 µM)	0.8 (≈ 2.21 µM)	0.8 (≈ 2.21 µM)	0.8 (≈ 2.21 µM)	–	–	–	–	–	–	–	–	–	–	–	–
CN1CCN(c2ccc3c(c2)N2CCN=C2C(c2ccccc2)=[N+]3[O-])CC1 [Example 4, 1,2-Dihydro-8-(4-methylpiperazinyl)-4-phenylimidazo[1,2-a]-quinoxaline 5-oxide]	7.73	–	1.5 (≈ 4.15 µM)	3.1 (≈ 8.58 µM)	3.1 (≈ 8.58 µM)	3.1 (≈ 8.58 µM)	3.1 (≈ 8.58 µM)	3.1 (≈ 8.58 µM)	3.1 (≈ 8.58 µM)	1.5 (≈ 4.15 µM)	1.5 (≈ 4.15 µM)	25 (≈ 69.2 µM)	25 (≈ 69.2 µM)	6.2 (≈ 17.2 µM)	6.2 (≈ 17.2 µM)	6.2 (≈ 17.2 µM)	25 (≈ 69.2 µM)	6.2 (≈ 17.2 µM)	12.5 (≈ 34.6 µM)	6.2 (≈ 17.2 µM)	MIC ([2]; Peptostreptococcus): 12.5 µg/mL (≈ 34.6 µM); MIC ([7]; Bacteroides): 12.5 µg/mL (≈ 34.6 µM)
CC(=O)N1CCN(c2ccc3c(c2)N2CCN=C2C(c2ccccc2)=[N+]3[O-])CC1 [Example 7, 8-(4-Acetylpiperazinyl)-1,2-dihydro-4-phenylimidazo[1,2-a]quinoxaline 5-oxide]	11.3	–	1.5 (≈ 3.85 µM)	3.1 (≈ 7.96 µM)	3.1 (≈ 7.96 µM)	6.2 (≈ 15.9 µM)	–	6.2 (≈ 15.9 µM)	–	1.5 (≈ 3.85 µM)	< 0.8	12.5 (≈ 32.1 µM)	25 (≈ 64.2 µM)	1.5 (≈ 3.85 µM)	6.2 (≈ 15.9 µM)	6.2 (≈ 15.9 µM)	12.5 (≈ 32.1 µM)	3.1 (≈ 7.96 µM)	3.1 (≈ 7.96 µM)	< 0.8	MIC [2, 13]: 12.5 µg/mL (≈ 32.1 µM); MIC [7, 14]: 6.2 µg/mL (≈ 15.9 µM); MIC (B. fragilis NCTC 9344; read-out: MIC): 6.2 µg/mL (≈ 15.9 µM); MIC (B. fragilis NCTC 10581; read-out: MIC): 6.2 µg/mL (≈ 15.9 µM)
[O-][N+]1=C(c2ccccc2)C2=NCCN2c2nc(N3CCN(Cc4ccccc4)CC3)ccc21 [Example 17, 1,2-Dihydro-4-phenyl-8-(4-phenylmethylpiperazinyl)imidazo[1,2-a]pyrido[3,2-e]pyrazine 5-oxide]	3.59	–	–	–	–	–	–	–	–	–	–	–	–	–	–	–	–	–	–	–	–
[O-][N+]1=C(c2ccccc2)C2=NCCN2c2cc(N3CCN(c4ccccc4)CC3)c(F)cc21 [Example 5, 1,2-Dihydro-7-fluoro-4-phenyl-8-(4-phenylpiperazinyl)imidazo[1,2-a]quinoxaline 5-oxide]	11.7	0.8 (≈ 1.81 µM)	–	–	–	–	–	–	3.1 (≈ 7.02 µM)	–	< 0.8	> 100	> 100	3.1 (≈ 7.02 µM)	1.5 (≈ 3.4 µM)	–	> 100	6.2 (≈ 14 µM)	6.2 (≈ 14 µM)	< 0.8	MIC [2, 13]: > 100 µg/mL; MIC (B. fragilis NCTC 9343; read-out: MIC): 1.5 µg/mL (≈ 3.4 µM); MIC [7, 14]: > 100 µg/mL; MIC (B. fragilis NCTC 9344; read-out: MIC): 6.2 µg/mL (≈ 14 µM)
